Values quoted from earlier work, collected in US20070122458A1, “Nicotine and Chocolate Compositions” (priority 2001, published 2007).

Columns and labels:
[1] = nasal solution insufflation; smokers and non-smokers; not "sweets"
[2] = intravenous infusion; smokers and non-smokers similarly
[3] = smoker, cigarette smoking

## CN1CCCC1c1cccnc1 (stereo not drawn) [nicotine]
[1]
  perceived taste intensity of dietary "fat": significantly reduced
[2]
  increase of the resting metabolic rate: 6.5%
[3]
  time to peak blood levels of nicotine after starting smoking: 5 to 10 min
